Among the data in patent US20160009686A1, “VEGFR3 INHIBITORS” (CANCER THERAPEUTICS CRC PTY LIMITED, priority 2012, published 2016) are IC50 values, retold here.

The structures appear in SMILES notation.

A word on the IC50: it is the concentration that gives 50% inhibition.

For the first assay, the target named is VEGFR3 cytoplasmic domain (Homo sapiens, UniProt P35916). Put plainly: VEGFR3 Biochemical Assay (AlphaScreen). The following applies: GST-fusion enzyme, 500 μM ATP, 90 minutes at 30 degree Celsius (modified form in some cases: Hexa-His-fusion enzyme, 1 μM ATP); read-out: IC50. A general note: Alpha assays give light when donor and acceptor beads are brought close together.
Chain of VEGFR3 cytoplasmic domain (P35916 798-1298 isoform P35916-1): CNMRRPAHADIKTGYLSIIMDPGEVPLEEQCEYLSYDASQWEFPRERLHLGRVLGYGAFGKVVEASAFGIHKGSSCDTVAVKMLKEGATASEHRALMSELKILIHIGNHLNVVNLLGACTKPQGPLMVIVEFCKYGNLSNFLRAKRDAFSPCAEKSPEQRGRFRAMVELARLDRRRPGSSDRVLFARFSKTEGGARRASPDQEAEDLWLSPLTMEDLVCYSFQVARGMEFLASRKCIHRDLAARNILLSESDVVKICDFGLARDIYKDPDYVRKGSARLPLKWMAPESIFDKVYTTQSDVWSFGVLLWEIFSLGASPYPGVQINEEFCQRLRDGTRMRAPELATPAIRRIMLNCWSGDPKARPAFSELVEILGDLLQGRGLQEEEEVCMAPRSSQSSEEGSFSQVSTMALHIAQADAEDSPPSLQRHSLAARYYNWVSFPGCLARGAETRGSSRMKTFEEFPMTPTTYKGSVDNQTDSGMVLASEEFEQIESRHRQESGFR
As to `Cc1cnc(Nc2cnn(C)c2)nc1CCc1ccccc1C(C)C(N)=O` (single isomer, unassigned) [Compound 51-1A, 2-(2-(2-(5-methyl-2-((1-methyl-1H-pyrazol-4-yl)amino)pyrimidin-4-yl)ethyl)phenyl)propanamide], the 50% inhibitory concentration (IC50) was determined as 25 nM.
In the case of `Cc1cnc(Nc2cnn(C)c2)nc1CCc1ccccc1C(C)C(N)=O` (single isomer, unassigned) [Compound 51-2A, 2-(2-(2-(5-methyl-2-((1-methyl-1H-pyrazol-4-yl)amino)pyrimidin-4-yl)ethyl)phenyl)propanamide], the half-maximal inhibitory concentration (IC50) came to 41 nM.
Turning to `NC(=O)C1(c2ccccc2CCc2nc(Nc3ncco3)ncc2Cl)CC1` [Compound 11, 1-(2-(2-(5-Chloro-2-(oxazol-2-ylamino)pyrimidin-4-yl)ethyl)phenyl)cyclopropanecarboxamide], the IC50 is 1300 nM.
The same measure, in the same setting: the result for `NC(=O)C1(c2ccccc2CCc2nc(Nc3ccnnc3)ncc2Cl)CC1` [Compound 22, 1-(2-(2-(5-Chloro-2-(pyridazin-4-ylamino)pyrimidin-4-yl)ethyl)phenyl)cyclopropanecarboxamide] reads 20 nM; that for `Cc1n[nH]cc1Nc1ncc(Cl)c(CCc2ccccc2C2(C(N)=O)CC2)n1` [Compound 25, 1-(2-(2-(5-Chloro-2-((3-methyl-1H-pyrazol-4-yl)amino)pyrimidin-4-yl)ethyl)phenyl)cyclopropanecarboxamide], 7 nM.
Same read-out and setting: under `Cc1nn(C)cc1Nc1ncc(Cl)c(CCc2ccccc2C2(C(N)=O)CC2)n1` [Compound 26, 1-(2-(2-(5-Chloro-2-((1,3-dimethyl-1H-pyrazol-4-yl)amino)pyrimidin-4-yl)ethyl)phenyl)cyclopropanecarboxamide] stands 12 nM.
Same read-out and setting: the result for `Cc1cc(Nc2ncc(Cl)c(CCc3ccccc3C3(C(N)=O)CC3)n2)n[nH]1` [Compound 27, 1-(2-(2-(5-Chloro-2-((5-methyl-1H-pyrazol-3-yl)amino)pyrimidin-4-yl)ethyl)phenyl)cyclopropanecarboxamide] reads 47 nM; that for `Cn1ccc(Nc2ncc(Cl)c(CCc3ccccc3C3(C(N)=O)CC3)n2)n1` [Compound 28, 1-(2-(2-(5-Chloro-2-((1-methyl-1H-pyrazol-3-yl)amino)pyrimidin-4-yl)ethyl)phenyl)cyclopropanecarboxamide], 268 nM.
Regarding `NC(=O)C1(c2ccccc2CCc2nc(Nc3cnn(CC(F)(F)F)c3)ncc2Cl)CC1` [Compound 29, 1-(2-(2-(5-Chloro-2-((1-(2,2,2-trifluoroethyl)-1H-pyrazol-4-yl)amino)pyrimidin-4-yl)ethyl)phenyl)cyclopropanecarboxamide], the IC50 is 8 nM.
Same read-out and setting: under `CC(C)n1cc(Nc2ncc(Cl)c(CCc3ccccc3C3(C(N)=O)CC3)n2)cn1` [Compound 30, 1-(2-(2-(5-Chloro-2-((1-isopropyl-1H-pyrazol-4-yl)amino)pyrimidin-4-yl)ethyl)phenyl)cyclopropanecarboxamide] stands 4 nM; under `N#Cc1ccc(Nc2ncc(Cl)c(CCc3ccccc3C3(C(N)=O)CC3)n2)cn1` [Compound 31, 1-(2-(2-(5-Chloro-2-((6-cyanopyridin-3-yl)amino)pyrimidin-4-yl)ethyl)phenyl)cyclopropanecarboxamide], 48 nM.
Regarding `CC(=O)c1ccc(Nc2ncc(Cl)c(CCc3ccccc3C3(C(N)=O)CC3)n2)cn1` [Compound 32, 1-(2-(2-(2-((6-Acetylpyridin-3-yl)amino)-5-chloropyrimidin-4-yl)ethyl)phenyl)cyclopropanecarboxamide], the IC50 was 44 nM.
On the same count and under the same terms, the result for `CC(N)c1ccc(Nc2ncc(Cl)c(CCc3ccccc3C3(C(N)=O)CC3)n2)cn1` (stereo not shown) [Compound 33, 1-(2-(2-(2-((6-(1-Aminoethyl)pyridin-3-yl)amino)-5-chloropyrimidin-4-yl)ethyl)phenyl)cyclopropanecarboxamide] reads 60 nM; that for `NC(=O)C1(c2ccccc2CCc2nc(Nc3cnn(C(F)F)c3)ncc2Cl)CC1` [Compound 34, 1-(2-(2-(5-Chloro-2-((1-(difluoromethyl)-1H-pyrazol-4-yl)amino)pyrimidin-4-yl)ethyl)phenyl)cyclopropanecarboxamide], 7 nM; that for `CC(C(N)=O)c1ccccc1CCc1nc(Nc2ccc(C3CCNCC3)nc2)ncc1Cl` (stereo not shown) [Compound 37, 2-(2-(2-(5-Chloro-2-((6-(piperidin-4-yl)pyridin-3-yl)amino)pyrimidin-4-yl)ethyl)phenyl)propanamide], 31 nM.
Still for that read-out and setting: the result for `CC(C(N)=O)c1ccccc1CCc1nc(Nc2ccc(C3CCN(C)CC3)nc2)ncc1Cl` (stereo not shown) [Compound 38, 2-(2-(2-(5-Chloro-2-((6-(1-methylpiperidin-4-yl)pyridin-3-yl)amino)pyrimidin-4-yl)ethyl)phenyl)propanamide] reads 32 nM; that for `CC(C(N)=O)c1ccccc1CCc1nc(Nc2cccnc2)ncc1Cl` (stereo not shown) [Compound 39, 2-(2-(2-(5-Chloro-2-(pyridin-3-ylamino)pyrimidin-4-yl)ethyl)phenyl) propanamide], 44 nM.
Still for that read-out and setting: the result for `CC(C(N)=O)c1ccccc1CCc1nc(Nc2cncnc2)ncc1Cl` (stereo not shown) [Compound 40, 2-(2-(2-(5-Chloro-2-(pyrimidin-5-ylamino)pyrimidin-4-yl)ethyl)phenyl) propanamide] reads 160 nM; that for `Cc1ccc(Nc2ncc(Cl)c(CCc3ccccc3C(C)C(N)=O)n2)cn1` (stereo not shown) [Compound 41, 2-(2-(2-(5-chloro-2-(6-methylpyridin-3-ylamino)pyrimidin-4-yl)ethyl)phenyl) propanamide], 45 nM; that for `CC(C(N)=O)c1ccccc1CCc1nc(Nc2ccnnc2)ncc1Cl` (stereo not shown) [Compound 42, 2-(2-(2-(5-Chloro-2-(pyridazin-4-ylamino)pyrimidin-4-yl)ethyl)phenyl)propanamide], 154 nM.
`CC(C(N)=O)c1ccccc1CCc1nc(Nc2cnn(C3CCNCC3)c2)ncc1Cl` (stereo not shown) [Compound 43, 2-(2-(2-(5-Chloro-2-(1-(piperidin-4-yl)-1H-pyrazol-4-ylamino)pyrimidin-4-yl)ethyl)phenyl) propanamide]: the 50% inhibitory concentration (IC50) was 12 nM.
On the same count and under the same terms, the result for `Cc1cnc(Nc2cn[nH]c2)nc1CCc1ccccc1C1(C(N)=O)CC1` [Compound 46, 1-(2-(2-(2-((1H-Pyrazol-4-yl)amino)-5-methylpyrimidin-4-yl)ethyl)phenyl)cyclopropanecarboxamide] reads 13 nM; that for `Cc1cnc(Nc2cnn(C)c2)nc1CCc1ccccc1C1(C(N)=O)CC1` [Compound 47, 1-(2-(2-(5-Methyl-2-((1-methyl-1H-pyrazol-4-yl)amino)pyrimidin-4-yl)ethyl)phenyl)cyclopropanecarboxamide], 5 nM; that for `Cc1cnc(Nc2cnn(C3CCN(C)CC3)c2)nc1CCc1ccccc1C1(C(N)=O)CC1` [Compound 48, 1-(2-(2-(5-Methyl-2-((1-(1-methylpiperidin-4-yl)-1H-pyrazol-4-yl)amino)pyrimidin-4-yl)ethyl)phenyl)cyclopropanecarboxamide], 12 nM.
The same measure, in the same setting: the result for `Cc1cnc(Nc2ccc(C3CCN(C)CC3)nc2)nc1CCc1ccccc1C1(C(N)=O)CC1` [Compound 49, 1-(2-(2-(5-Methyl-2-((6-(1-methylpiperidin-4-yl)pyridin-3-yl)amino)pyrimidin-4-yl)ethyl)phenyl)cyclopropanecarboxamide] reads 23 nM; that for `Cc1cnc(Nc2ccc(C(C)N)cc2)nc1CCc1ccccc1C1(C(N)=O)CC1` (stereo not shown) [Compound 50, 1-(2-(2-(2-((4-(1-Aminoethyl)phenyl)amino)-5-methylpyrimidin-4-yl)ethyl)phenyl)cyclopropanecarboxamide], 46 nM; that for `NC(=O)C1(c2ccccc2CCc2nc(Nc3ccc(C4CCNCC4)cc3)ncc2C(F)(F)F)CCC1` [Compound 52, 1-(2-(2-(2-((4-(Piperidin-4-yl)phenyl)amino)-5-(trifluoromethyl)pyrimidin-4-yl)ethyl)phenyl)cyclobutanecarboxamide], 23 nM.
The same measure, in the same setting: the result for `NC(=O)C1(c2cccc(CCc3nc(Nc4cnn(C5CCNCC5)c4)ncc3C(F)(F)F)c2)CC1` [Compound 53, 1-(3-(2-(2-((1-(Piperidin-4-yl)-1H-pyrazol-4-yl)amino)-5-(trifluoromethyl)pyrimidin-4-yl)ethyl)phenyl)cyclopropanecarboxamide] reads 228 nM; that for `CC(C(N)=O)c1ccccc1CCc1nc(Nc2cn[nH]c2)ncc1C(F)(F)F` (stereo not shown) [Compound 54, 2-(2-(2-(2-((1H-Pyrazol-4-yl)amino)-5-(trifluoromethyl)pyrimidin-4-yl)ethyl)phenyl)propanamide], 17 nM.
In the case of `COc1ccc(Nc2ncc(C(F)(F)F)c(CCc3ccccc3C(C)C(N)=O)n2)cn1` (stereo not shown) [Compound 61, 2-(2-(2-(2-((6-Methoxypyridin-3-yl)amino)-5-(trifluoromethyl)pyrimidin-4-yl)ethyl)phenyl) propanamide], the IC50 worked out at 118 nM.
Consider `CC(C(N)=O)c1ccccc1CCc1nc(Nc2ccc(C3CCNCC3)nc2)ncc1C(F)(F)F` (stereo not shown) [Compound 62, 2-(2-(2-(2-((6-(Piperidin-4-yl)pyridin-3-yl)amino)-5-(trifluoromethyl)pyrimidin-4-yl)ethyl)phenyl)propanamide], for which the IC50 worked out at 492 nM.
On the same count and under the same terms, under `CC(C(N)=O)c1ccccc1CCc1nc(Nc2ccc(C3CCN(C)CC3)nc2)ncc1C(F)(F)F` (stereo not shown) [Compound 63, 2-(2-(2-(2-((6-(1-Methylpiperidin-4-yl)pyridin-3-yl)amino)-5-(trifluoromethyl)pyrimidin-4-yl)ethyl)phenyl)propanamide] stands 28 nM; under `Cn1cc(Nc2ncc(C(F)(F)F)c(CCc3ccccc3C3(C(N)=O)CC3)n2)cn1` [Compound 65, 1-(2-(2-(2-((1-Methyl-1H-pyrazol-4-yl)amino)-5-(trifluoromethyl)pyrimidin-4-yl)ethyl)phenyl)cyclopropanecarboxamide], 3 nM.

Still in this assay, the particulars now being: IC50 (nM), GST-fusion enzyme, 500 μM ATP, 90 minutes at 30 degree Celsius (modified form in some cases: Hexa-His-fusion enzyme, 1 μM ATP).
In turn, `NC(=O)C1(c2ccccc2CCc2nc(Nc3ccccc3)ncc2Cl)CC1` [Compound 23, 1-(2-(2-(5-Chloro-2-(phenylamino)pyrimidin-4-yl)ethyl)phenyl)cyclopropanecarboxamide] gave a half-inhibitory concentration (IC50) of 11 nM.
